According to publication PMC10492809, “A Bischler-Napieralski and homo-Mannich sequence enables diversified syntheses of sarpagine alkaloids and analogues” (Nature Communications, 2023):
pIC50: −log10 of the molar value. Where “and” joins values, the source holds several entries; their conditions need not be identical. Equal values may be shown once. Read-outs that look alike come from different tables or passages of the source.

Key:
Format in all cases: cell-based
GPX4 = assay: Western blotting, GPX4 protein expression; details: 15ai 0, 2, 4 and 8 μM, 24 h
Protocol: (§1) Cells on 6-well plates were rinsed twice with cold PBS and lysed in RIPA lysis buffer (50 mM Tris (pH 7.4), 150 mM NaCl, 1% Triton X-100, 1% deoxycholicphenyl methylsulfonyl fluoride, 5.0 mM sodium pyrophosphate, […] leupeptin, 0.1 mM phenylmethylsulfonyl fluoride, and1 mM DTT) containing a protease inhibitor (PMSF) mixture at 1:100 dilution on ice for 30 min. The insoluble components of cell lysates were removed by centrifugation (4 °C, 12000 × g, 10 min), and protein concentrations were measured using a Pierce BCA protein assay kit. Proteins were separated by sodium dodecyl sulfate-polyacrylamide gel electrophoresis (SDS-PAGE) and transferred onto polyvinylidene difluoride (PVDF) membranes. Membranes were blocked using 5% skim milk in TBST and then incubated with diluted indicated primary antibodies: anti-GPX4 (1:1000 dilution, Proteintech, Cat No: 30388-1-AP), anti-SLC7A11 (1:1000 dilution, ABclonal, Cat No: A13685), anti-GAPDH (1:1000 dilution, Wanlei, Cat No: WL01114) at 4 °C with gentle shaking overnight. After washing five times (5 min each) with TBST, membranes were incubated with the HRP conjugated goat anti rabbit IgG (H + L) (1:5000 dilution, Wanlei, Cat No: WLA023) for 1 h at rt. Immunoreactive bands were visualized using an ECL detection kit (Wanlei, Cat No: WLA006) following the manufacturer’s instruction on the ChemiDoc system (BioRad, Shanghai, China).

CT26 = assay: MTT cell viability assay, CT26
Protocol: (§2) All cell lines were cultured at 37 °C with 5% CO2 in a humidified incubator. HeLa cells were grown in MEM (Gibco) supplemented with 10% fetal bovine serum (FBS, Hyclone) and 1% penicillin/streptomycin (Gibco). MIA PaCa-2, MDA-MB-231, A549, MCF-7, A375 and BEAS-2B cells were grown in DMEM (Gibco) supplemented with 10% FBS and 1% penicillin/streptomycin. CT26, and HCT116 cells were grown in RPMI-1640 supplemented with 10% FBS and 1% penicillin/streptomycin. All cell lines were purchased from the National Collection of Authenticated Cell Cultures (China).
(§3) The antiproliferative activities of the prepared compounds against tested cell lines were evaluated using a standard (MTT)-based colorimetric assay. Cells were plated at a density of 3000 cells/well in 96-well plates and allowed to adhere overnight. Then cells were treated with varying concentrations of synthesized compounds for 72 h. At the end of treatment, 20 μL of thiazolyl blue tetrazolium bromide (MTT) solution (5 mg/mL) was added to each well. Cells were incubated for an additional 4 h at 37 °C and then the medium was removed and replaced with 200 μL of DMSO. The absorbance (OD490) was read on a microplate reader (SpectraMax i3x, Molecular Devices, US). In all experiments, three replicate wells were used for each drug concentration. Each assay was performed at least three times. The IC50 values were calculated by GraphPad Prism 9, which were the mean values derived from three independent experiments.

MDA-MB-231 = assay: MTT cell viability assay, MDA-MB-231
Protocol: as §2, §3

MDA-MB-231 cells [1] = assay: Measurement of glutathione levels
Protocol: Cells were plated at a density of 2 × 10^5 cells/well in 6-well plates and allowed to adhere overnight. After being treated as indicated, cells were collected and prepared for measurement of total intracellular glutathione (GSH + GSSG) using the assay kit (Beyotime, S0052) according to the manufacturer’s instructions. […]

A549 = assay: MTT cell viability assay, A549
Protocol: as §2, §3

SLC7A11 = assay: Western blotting, SLC7A11 protein expression; details: 15ai 0, 2, 4 and 8 μM, 24 h
Protocol: as §1

MIA PaCa-2 = assay: MTT cell viability assay, MIA PaCa-2
Protocol: as §2, §3

MCF-7 = assay: MTT cell viability assay, MCF-7
Protocol: as §2, §3

MDA-MB-231 cells [2] = assay: Transmission electron microscopy of cell morphology; details: 15ai 4 μM, 24 h
Protocol: Cells were plated at a density of 6 × 10^5 cells/dish in 10 cm culture dishes and allowed to adhere overnight. Then cells were treated with DMSO or compound 15ai for 24 h. Cells were fixed with 2.5% glutaraldehyde in […] phosphate buffer, followed by 1% OsO4 for 2 h. After dehydration, cells were embedded in epoxy resin. The ultrathin sections were made by an ultramicrotome and then stained with lead citrate and uranyl acetate. Images were acquired using the transmission electron microscope (Hitachi H-7650 100kv, Hitachi, Japan). Each experiment was repeated three times independently with similar results.

Hela = assay: MTT cell viability assay, Hela
Protocol: as §2, §3

A375 = assay: MTT cell viability assay, A375
Protocol: as §2, §3

HCT 116 = assay: MTT cell viability assay, HCT 116
Protocol: as §2, §3

C=C=C1CN2[C@H]3C[C@H]1[C@H](C=O)[C@@H]2Cc1c3n(S(=O)(=O)c2ccc(C)cc2)c2ccc(Cl)cc12 [Compound 15ai]
protein level of GPX4 (GPX4): did not affect the protein level of GPX4
pIC50 (CT26; Mus musculus, CT26, 72 h, MTT, 72 h, mean of at least three independent experiments, read-out: IC50 CT26): 5.22
pIC50 (CT26; Mus musculus, CT26, source data sheet, single values of three experiments, read-out: MTT IC50 CT-26): 5.15
pIC50 (CT26; source data sheet, single values of three experiments, read-out: MTT IC50 CT-26): 5.23 and 5.30
pIC50 (MDA-MB-231; Homo sapiens, MDA-MB-231, 72 h, MTT, 72 h, mean of at least three independent experiments, read-out: IC50 MDA-MB-231): 5.69
pIC50 (MDA-MB-231; Homo sapiens, MDA-MB-231, source data sheet, single values of three experiments, read-out: MTT IC50 MDA-MB-231): 5.77
pIC50 (MDA-MB-231; source data sheet, single values of three experiments, read-out: MTT IC50 MDA-MB-231): 5.68 and 5.64
GSH levels (% of control) (MDA-MB-231 cells [1]; 15ai 4 μM per Fig. 4, single replicates): 52.357 % of control and 54.35 % of control
GSH levels (% of control) (MDA-MB-231 cells [1]; (15ai 2 μM per Fig. 4), single replicates): 80.51 % of control and 78.85 % of control
GSH levels (% of control) (MDA-MB-231 cells [1]; (15ai 8 μM per Fig. 4), single replicates): 27.587 % of control and 22.5 % of control
GSH level (% of control) at 2 µM (MDA-MB-231 cells [1]; Homo sapiens, MDA-MB-231, column 2 (15ai 2 μM per Fig. 4), single replicates): 84.6%
GSH level (% of control) at 4 µM (MDA-MB-231 cells [1]; Homo sapiens, MDA-MB-231, column 4 (15ai 4 μM per Fig. 4), single replicates): 61.6%
GSH level (% of control) at 8 µM (MDA-MB-231 cells [1]; Homo sapiens, MDA-MB-231, column 8 (15ai 8 μM per Fig. 4), single replicates): 23.2%
GSH levels (MDA-MB-231 cells [1]; result in words, 15ai 0, 2, 4 and 8 μM): dose-dependently decreased
pIC50 (A549; Homo sapiens, A549, 72 h, MTT, 72 h, mean of at least three independent experiments, read-out: IC50 A549): 4.89
pIC50 (A549; Homo sapiens, A549, source data sheet, single values of three experiments, read-out: MTT IC50 A549): 4.84
pIC50 (A549; source data sheet, single values of three experiments, read-out: MTT IC50 A549): 4.90 and 4.93
SLC7A11 level (SLC7A11): dose-dependently decreased
pIC50 (MIA PaCa-2; Homo sapiens, MIA PaCa-2, 72 h, MTT, 72 h, mean of at least three independent experiments, read-out: IC50 MIA PaCa-2): 5.08
pIC50 (MIA PaCa-2; Homo sapiens, MIA PaCa-2, source data sheet, single values of three experiments, read-out: MTT IC50 MIA PaCa-2): 5.10
pIC50 (MIA PaCa-2; source data sheet, single values of three experiments, read-out: MTT IC50 MIA PaCa-2): 5.00 and 5.15
pIC50 (MCF-7; Homo sapiens, MCF7, 72 h, MTT, 72 h, mean of at least three independent experiments, read-out: IC50 MCF-7): 4.86
pIC50 (MCF-7; Homo sapiens, MCF7, source data sheet, single values of three experiments, read-out: MTT IC50 MCF-7): 4.80
pIC50 (MCF-7; source data sheet, single values of three experiments, read-out: MTT IC50 MCF-7): 4.89
cell morphology by TEM (MDA-MB-231 cells [2]): mitochondrial swelling occurred
pIC50 (Hela; Homo sapiens, HeLa, 72 h, MTT, 72 h, mean of at least three independent experiments, read-out: IC50 Hela): 5.53
pIC50 (Hela; Homo sapiens, HeLa, source data sheet, single values of three experiments, read-out: MTT IC50 Hela): 5.52
pIC50 (Hela; source data sheet, single values of three experiments, read-out: MTT IC50 Hela): 5.69 and 5.42
pIC50 (A375; Homo sapiens, A-375, 72 h, MTT, 72 h, mean of at least three independent experiments, read-out: IC50 A375): 5.58
pIC50 (A375; Homo sapiens, A-375, source data sheet, single values of three experiments, read-out: MTT IC50 A375): 5.56
pIC50 (A375; source data sheet, single values of three experiments, read-out: MTT IC50 A375): 5.71 and 5.50
pIC50 (HCT 116; Homo sapiens, HCT-116, 72 h, MTT, 72 h, mean of at least three independent experiments, read-out: IC50 HCT 116): 5.32
pIC50 (HCT 116; Homo sapiens, HCT-116, source data sheet, single values of three experiments, read-out: MTT IC50 HCT-116): 5.20
pIC50 (HCT 116; source data sheet, single values of three experiments, read-out: MTT IC50 HCT-116): 5.42 and 5.37
